From patent publication US20030104507A1, “Method for detection of ATP” (priority 2001, published 2003)

Assays:
LucPpy = target: T1, LucPpy (Photinus pyralis, UniProt P08659); test: Stability of reagent composition with LucPpy and detergent (RT, pH 7.0); type: biochemical; conditions: LucPpy
T1 construct: purchased Promega E170A
Summary of the method: (§1)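 Reagent with 50 μg/ml luciferase, luciferin, MgSO4, buffer and detergent at varying concentrations held at about 23° C; enzyme added just before first read. At timepoints, aliquots mixed 1:1 with media containing ATP and luminescence read immediately (0.5 s/well, triplicate); reaction half-lives and percent of original luminescence derived.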

LucPpe2m146 = test: Stability of reagent composition with LucPpe2m146 and detergent (RT, pH 7.0); type: biochemical, Photuris pennsylvanica
Summary of the method: as §1

[1] = target: native firefly luciferase (Photinus pyralis, UniProt P08659); conditions: cited from earlier work
native firefly luciferase, sequence (P08659 whole entry): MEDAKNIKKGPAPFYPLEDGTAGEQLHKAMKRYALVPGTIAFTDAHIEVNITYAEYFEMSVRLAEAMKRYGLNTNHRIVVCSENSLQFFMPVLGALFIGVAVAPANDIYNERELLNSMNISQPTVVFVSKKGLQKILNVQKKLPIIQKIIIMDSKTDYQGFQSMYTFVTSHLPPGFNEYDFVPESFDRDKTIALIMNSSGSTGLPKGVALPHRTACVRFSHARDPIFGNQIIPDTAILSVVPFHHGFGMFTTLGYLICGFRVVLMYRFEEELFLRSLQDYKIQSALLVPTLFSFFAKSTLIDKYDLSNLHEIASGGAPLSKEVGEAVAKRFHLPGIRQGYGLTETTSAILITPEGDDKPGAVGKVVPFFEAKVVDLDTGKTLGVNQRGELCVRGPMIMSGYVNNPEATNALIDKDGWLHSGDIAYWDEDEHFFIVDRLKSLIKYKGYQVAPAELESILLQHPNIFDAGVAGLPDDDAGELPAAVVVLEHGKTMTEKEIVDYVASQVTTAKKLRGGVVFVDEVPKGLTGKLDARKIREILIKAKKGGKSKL

CCCCCCCCCCCCCCCC[N+](C)(C)C.[Br-] [CTAB, Cetyltrimethylammonium bromide]
Average Relative Light Units (LucPpy; 0.02%, 0.75 min (head r25)): 1869.80 rlu
Percent of Luminescence Remaining (LucPpy; 0.02%, 0.75 min (times of Table I r25)): 100.00%
Average Relative Light Units (LucPpy; 0.02%, 6 min (head r25)): 79.719 rlu
Percent of Luminescence Remaining (LucPpy; 0.02%, 6 min (times of Table I r25)): 0.09%
Percent of Luminescence Remaining (LucPpy; 0.02%, 16 min (times of Table I r25, r31)): 0.03%
Average Relative Light Units (LucPpy; 0.02%, (16 min) (head r25)): 0.099 rlu
Average Relative Light Units (LucPpy; 0.05%, 0.75 min (head r25)): 1134.53 rlu
Percent of Luminescence Remaining (LucPpy; 0.05%, 0.75 min (times of Table I r25)): 100.00%
Average Relative Light Units (LucPpy; 0.05%, 6 min (head r25)): 0.563 rlu
Percent of Luminescence Remaining (LucPpy; 0.05%, 6 min (times of Table I r25)): 0.05%
Average Relative Light Units (LucPpy; 0.05%, 20 min (head r25)): 0.015 rlu
Percent of Luminescence Remaining (LucPpy; 0.05%, 20 min (times of Table I r25)): 0.00%
Average Relative Light Units (LucPpy; 0.1%, 0.75 min (head r25)): 94.603 rlu
Percent of Luminescence Remaining (LucPpy; 0.1%, 0.75 min (times of Table I r25)): 100.00%
Average Relative Light Units (LucPpy; 0.1%, 6 min (head r25)): 0.020 rlu
Percent of Luminescence Remaining (LucPpy; 0.1%, 6 min (times of Table I r25)): 0.02%
Average Relative Light Units (LucPpe2m146; LucPpe2m146, 0.02%, 1.0 min (head r61)): 11019.8 rlu
Percent of Luminescence Remaining (LucPpe2m146; LucPpe2m146, 0.02%, 1.0 min (times of Table I r61)): 100.00%
Average Relative Light Units (LucPpe2m146; LucPpe2m146, 0.02%, 37 min (head r61)): 2051.7 rlu
Percent of Luminescence Remaining (LucPpe2m146; LucPpe2m146, 0.02%, 37 min (times of Table I r61)): 18.62%
Average Relative Light Units (LucPpe2m146; LucPpe2m146, 0.02%, 67 min (head r61)): 1087.4 rlu
Percent of Luminescence Remaining (LucPpe2m146; LucPpe2m146, 0.02%, 67 min (times of Table I r61)): 9.87%
Average Relative Light Units (LucPpe2m146; LucPpe2m146, 0.02%, 116 min (head r61)): 6117.8 rlu
Percent of Luminescence Remaining (LucPpe2m146; LucPpe2m146, 0.02%, 116 min (times of Table I r61)): 55.52%
Average Relative Light Units (LucPpe2m146; LucPpe2m146, 0.02%, 177 min (head r61)): 16020.8 rlu
Percent of Luminescence Remaining (LucPpe2m146; LucPpe2m146, 0.02%, 177 min (times of Table I r61)): 145.38%
Average Relative Light Units (LucPpe2m146; LucPpe2m146, 0.02%, 243 min (head r61)): 16368.5 rlu
Percent of Luminescence Remaining (LucPpe2m146; LucPpe2m146, 0.02%, 243 min (times of Table I r61)): 148.54%
Average Relative Light Units (LucPpe2m146; LucPpe2m146, 0.05%, 1.0 min (head r61)): 11992.5 rlu
Percent of Luminescence Remaining (LucPpe2m146; LucPpe2m146, 0.05%, 1.0 min (times of Table I r61)): 100.00%
Average Relative Light Units (LucPpe2m146; LucPpe2m146, 0.05%, 37 min (head r61)): 301.5 rlu
Percent of Luminescence Remaining (LucPpe2m146; LucPpe2m146, 0.05%, 37 min (times of Table I r61)): 2.51%
Average Relative Light Units (LucPpe2m146; LucPpe2m146, 0.05%, 67 min (head r61)): 131.7 rlu
Percent of Luminescence Remaining (LucPpe2m146; LucPpe2m146, 0.05%, 67 min (times of Table I r61)): 1.10%
Average Relative Light Units (LucPpe2m146; LucPpe2m146, 0.05%, 116 min (head r61)): 4219.7 rlu
Percent of Luminescence Remaining (LucPpe2m146; LucPpe2m146, 0.05%, 116 min (times of Table I r61)): 35.19%
Average Relative Light Units (LucPpe2m146; LucPpe2m146, 0.05%, 177 min (head r61)): 16910.8 rlu
Percent of Luminescence Remaining (LucPpe2m146; LucPpe2m146, 0.05%, 177 min (times of Table I r61)): 141.01%
Average Relative Light Units (LucPpe2m146; LucPpe2m146, 0.05%, 243 min (head r61)): 17340.0 rlu
Percent of Luminescence Remaining (LucPpe2m146; LucPpe2m146, 0.05%, 243 min (times of Table I r61)): 144.5%
Average Relative Light Units (LucPpe2m146; LucPpe2m146, 0.1%, 1.0 min (head r61)): 1047.8 rlu
Percent of Luminescence Remaining (LucPpe2m146; LucPpe2m146, 0.1%, 1.0 min (times of Table I r61)): 100.00%
Average Relative Light Units (LucPpe2m146; LucPpe2m146, 0.1%, 37 min (head r61)): 5.3 rlu
Percent of Luminescence Remaining (LucPpe2m146; LucPpe2m146, 0.1%, 37 min (times of Table I r61)): 0.51%
Average Relative Light Units (LucPpe2m146; LucPpe2m146, 0.1%, 67 min (head r61)): 5.2 rlu
Percent of Luminescence Remaining (LucPpe2m146; LucPpe2m146, 0.1%, 67 min (times of Table I r61)): 0.50%
Average Relative Light Units (LucPpe2m146; LucPpe2m146, 0.1%, 116 min (head r61)): 6.2 rlu
Percent of Luminescence Remaining (LucPpe2m146; LucPpe2m146, 0.1%, 116 min (times of Table I r61)): 0.59%
Average Relative Light Units (LucPpe2m146; LucPpe2m146, 0.1%, 177 min (head r61)): 6.0 rlu
Percent of Luminescence Remaining (LucPpe2m146; LucPpe2m146, 0.1%, 177 min (times of Table I r61)): 0.58%
Average Relative Light Units (LucPpe2m146; LucPpe2m146, 0.1%, 243 min (head r61)): 5.7 rlu
Percent of Luminescence Remaining (LucPpe2m146; LucPpe2m146, 0.1%, 243 min (times of Table I r61)): 0.55%
effect on native firefly luciferase [1]: inactivated
